From US20030215899A1, “Reversible oxidation of protein tyrosine phosphatases” (CEPTYR, Inc., priority 2002, published 2003)
“Also recorded” adds a separate entry of the source.

Key:
PTPs in Rat-1 cells = assay: modified in-gel PTP activity assay of Rat-1 cell lysates; format: cell-based; conditions: for inactivation (oxidation) of PTPs in cells: 200 μM
Text: (§1) To determine whether ROS stimulated intracellular tyrosine phosphorylation through the oxidation and inhibition of cellular PTPs, a modified in-gel PTP activity assay was devised, as follows: As substrate, poly (4:1) Glu-Tyr (Sigma) was labeled with [γ-^32P]-ATP using the GST-FER fusion PTK, as described previously (Shen et al., 1998 J. Biol. Chem. 273:6474-81). The labeled substrates were used within three weeks to limit the variation of its specific activity from experiment to experiment. The lysis buffer (25 mM CH3COONa, 1% NP-40, 150 mM NaCl, 10% glycerol, pH 5.5) was degassed at 4° C. for overnight, before catalase and superoxide dismutase (both 100 μg/ml), protease inhibitors and 10 mM iodoacetic acid (IAA) were added. Following stimulation, cells were lysed under anaerobic conditions in an argon chamber. Lysates (25 μg) were processed as described herein and an “in-gel” phosphatase assay (Burridge and Nelson, 1995) was conducted using SDS-PAGE gels containing a radioactively-labeled substrate (1.5×10^6 cpm/20 ml gel solution, approximately 2 μM p-Tyr).
(§2) Cells were triggered with the appropriate stimulus and harvested under anaerobic conditions in lysis buffer containing IAA. Those PTPs that had not encountered ROS in the cell became irreversibly inactivated by alkylation of their active site Cys with IAA. However, in contrast, any PTPs in which the active site Cys had been oxidized in response to the stimulus were resistant to alkylation. For the “in-gel” phosphatase assay, a 10% SDS-PAGE gel was cast containing a radioactively-labeled substrate. An aliquot of cell lysate was subjected to SDS-PAGE and proteins in the gel were sequentially denatured, then renatured in the presence of reducing reagents. […] The reaction was then terminated by fixing, staining and destaining the gel. Finally the gel was dried and exposed to film. The presence of a PTP was visualized by substrate dephosphorylation, as the appearance of a clear, white area on the black background of labeled substrate.

MAPK = assay: anti-phospho-MAPK / anti-MAPK immunoblot; format: cell-based, Rat; conditions: for activation of MAPKs (mitogenic signaling): 200 μM
Protocol: (§3) For immunoprecipitation, cells were rinsed with ice-cold PBS, then lysed in ice-cold 20 mM Hepes (pH 7.5), 1% NP-40, 150 mM NaCl, 10% glycerol, 200 μM […] and protease inhibitors (25 μg/ml of aprotinin and leupeptin). […] The anti-pTyr antibody G104 was described previously (Garton et al., 1997 Oncogene 15, 877-885). Anti-PDGFRββ antibody (Ab-X) was a gift from Dr. Daniel DiMaio at Yale University (Irusta and DiMaio, 1998 EMBO J. 17, 6912-6923). Anti-human G-CSF receptor (G-CSFR) antibody was provided by Dr. Toshio Hirano at Osaka University, Japan (Fukada et al., 1996 Immunity 5, 449-460). Lysate (400 μg) was incubated with 5 μg of antibody conjugated to protein A/G-Sepharose (Amersham Pharmacia, Arlington Heights, Ill.) for 2 hours at 4° C. For immunoblotting, aliquots of total lysates (30 μg per sample) or immunoprecipitates were subjected to SDS-PAGE and transferred to nitrocellulose filters, which were incubated with appropriate primary and secondary antibodies and the specific signals were visualized by the ECL detection system (Amersham Pharmacia).

SHP-2 (E76A mutant) = SHP-2 (E76A mutant) (Homo sapiens, UniProt Q06124, E76A); format: biochemical; conditions: for protection of SHP-2 from alkylation by IAA: 37° C. 5 mins, then 4 mM IAA
[1] = tested on: intracellular ROS in Rat-1 cells; assay: ROS-induced DCF fluorescence (microscopy, flow cytometry); format: cell-based; conditions: for DCF fluorescence by fluorescence microscopy: 20 μM H2DCFDA preload, 200 μM, 5 mins; for shift of DCF fluorescence by flow cytometry, H2O2 versus t-BHP: 200 μM each
Protocol: The effects of H2O2 and t-BHP on inactivation of PTPs and activation of MAPK signaling pathways were next compared in a cellular context. Intracellular ROS were measured using 2′,7′-dichlorofluorescein diacetate (H2DCFDA) and 5-(and-6)-chloromethyl-2′,7′-dichlorodihydrofluorescein diacetate (CM-H2DCFDA) (all fluorescent ROS indicators from Molecular Probes, Eugene, Oreg.) either by fluorescence microscopy, using a Zeiss Axiovert 405M inverted microscope equipped with a fluorescence attachment and digital camera, or by cell sorting, using a FACSCalibur System ([…].), according to the manufacturer's recommendations. Rat-1 cells were pre-loaded with 20 μM H2DCFDA in the dark for 20 mins, then exposed to H2O2 and t-BHP (both 200 μM) for 5 mins. Images of ROS-induced DCF fluorescence are shown at magnification 400× (FIG. 3B upper panel). Cells (1×10^5) that underwent the same treatment as above were harvested and resuspended in Hanks' solution, then immediately subjected to flow cytometric analysis to measure ROS-induced DCF fluorescence. The basal peak indicates background fluorescence, whereas the rightward shifted peak indicates ROS-induced DCF fluorescence (FIG. 3B, lower panels). […] Cells were exposed to H2O2 and t-BHP (each at 200 μM) for the indicated times, lysed in the presence of 10 mM IAA and oxidized PTPs were visualized in the in-gel PTP activity assay.
Rat-1 cells were incubated with 20 μM CM-H2DCFDA in the dark for 20 mins, then exposed to peptide growth factors (50 ng/ml) for an additional 10 mins. Images of ROS-induced DCF fluorescence are shown at 50× magnification. (FIG. 6A) The data are representative of 4 independent experiments. In FIG. 6B, Rat-1 cells were exposed to peptide growth factors for the indicated times, lysed in the presence of 10 mM IAA, and oxidized PTPs were visualized by the in-gel PTP assay. […] Aliquots of cell lysate from each treatment group were immunoblotted with anti-phospho-MAPK Ab and re-probed with anti-MAPK Ab.

[2] = tested on: tyrosine phosphorylation of cellular proteins in Rat-1 cells; assay: immunoprecipitation (PT-66) and anti-pTyr (G104) immunoblot of tyrosine phosphorylated proteins; format: cell-based
Protocol: as §3

70 kDa PTP (SHP-2) = molecular target: T1, 70 kDa PTP (SHP-2) (Rattus norvegicus, UniProt P41499); assay: modified in-gel PTP assay, growth factor stimulated Rat-1 cells; format: cell-based
T1 construct: endogenous in cells; host or cells: Rat-1 fibroblasts
T1 sequence (P41499 1-593): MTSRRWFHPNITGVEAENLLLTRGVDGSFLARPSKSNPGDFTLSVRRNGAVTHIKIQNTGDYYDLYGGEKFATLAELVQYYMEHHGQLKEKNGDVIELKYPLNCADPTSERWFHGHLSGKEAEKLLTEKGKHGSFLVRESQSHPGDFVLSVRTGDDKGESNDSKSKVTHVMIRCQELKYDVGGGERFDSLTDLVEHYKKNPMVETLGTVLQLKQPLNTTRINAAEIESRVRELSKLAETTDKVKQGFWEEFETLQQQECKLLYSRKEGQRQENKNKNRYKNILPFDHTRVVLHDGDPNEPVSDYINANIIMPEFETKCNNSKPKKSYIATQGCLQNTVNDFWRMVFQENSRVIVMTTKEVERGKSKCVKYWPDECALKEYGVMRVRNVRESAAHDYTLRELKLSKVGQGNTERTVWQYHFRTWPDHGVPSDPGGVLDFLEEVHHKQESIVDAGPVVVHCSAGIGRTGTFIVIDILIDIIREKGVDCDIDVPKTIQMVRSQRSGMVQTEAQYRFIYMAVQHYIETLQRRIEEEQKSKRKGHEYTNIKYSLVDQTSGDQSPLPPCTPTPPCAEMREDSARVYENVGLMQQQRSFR
Text: as §1, §2
As described above, treatment of Rat-1 cells with H2O2 led to inactivation of multiple PTPs (FIGS. 2-3). […] Lysates of PDGF-stimulated Rat-1 cells were then analyzed using the modified in-gel PTP activity assay described above. […] Serum-starved Rat-1 cells were exposed to 50 ng/ml PDGF-BB for the times indicated (FIG. 4A). Lysates were prepared in the presence of 10 mM IAA and subjected to the in-gel PTP assay. […] The result shown is representative of four independent experiments. Oxidation of this 70 kDa PTP was reversible, reaching a maximum at 5 minutes, followed by marked reduction, almost to basal levels, within 20 minutes of PDGF treatment (FIG. 4A).
Rat-1 cells, either untreated (−) or stimulated with 50 ng/ml PDGF (+), were harvested in lysis buffer containing 10 mM IAA.

PDGFR = PDGFR immunoprecipitation (Ab-X) and anti-pTyr immunoblot; format: cell-based, Rat; conditions: 30 mM NAC 40 minutes before PDGF 50 ng/ml
Protocol: as §3
A possible role of oxidation/inactivation of the 70 k PTP in regulating PDGFR-mediated signaling was next investigated by testing the effects of the antioxidant NAC. Cells were incubated for 40 minutes in the presence or absence of 30 mM NAC prior to PDGF stimulation. Excess NAC was removed prior to addition of PDGF (50 ng/ml). […]

PDGFR/SHP-2 complex = assay: recruitment of SHP-2 into a complex with the PDGFR; format: cell-based; conditions: ligand stimulation in Rat-1 cells, preliminary studies
Protocol: as §3
Serum-starved Rat-1 cells were exposed to PDGF (50 ng/ml) for the indicated times (FIG. 5A). The PDGFR and associated proteins were immunoprecipitated with antibody Ab-X, and pTyr proteins visualized by immunoblotting with anti-pTyr Ab G104 (FIG. 5A, upper panel). […]

[3] = 30 mM NAC 40 minutes before PDGF 50 ng/ml
[4] = PDGF-treated Rat-1 cells, preliminary experiments

## OO [H2O2, hydrogen peroxide]
PTPs in Rat-1 cells; 200 μM H2O2 for 2 minutes, no BSO
  time to essentially complete recovery (reduction) of PTPs after removal of H2O2: 10 to 20 min
PTPs in Rat-1 cells; lysis with 10 mM IAA
  inactivation (oxidation) of PTPs in cells: reproducible inactivation of PTPs was detected
PTPs in Rat-1 cells; 1 min exposure, serum-deprived Rat-1 cells
  H2O2 concentration sufficient to oxidize all PTPs detectable in the assay: 200 µM
PTPs in Rat-1 cells; H2O2 added to culture media, lysis with 10 mM IAA
  time to oxidation of active site Cys of various PTPs: ≤ 1 min
MAPK
  activation of MAPKs (mitogenic signaling): enhanced tyrosine phosphorylation and mitogenic signaling
MAPK; H2O2-treated Rat-1 cells
  phosphorylation of ERK MAP kinases: triggered the phosphorylation of ERK MAP kinases
SHP-2 (E76A mutant); 2 mM H2O2
  irreversible oxidation of SHP-2: not irreversibly oxidized
SHP-2 (E76A mutant)
  protection of SHP-2 from alkylation by IAA: protected SHP-2 from alkylation
[1]
  DCF fluorescence by fluorescence microscopy: led to rapid oxidation and the appearance of the fluorescent derivative, DCF
  shift of DCF fluorescence by flow cytometry, H2O2 versus t-BHP: no quantitative difference was observed
[2]; 200 μM
  tyrosine phosphorylation of cellular proteins: enhanced tyrosine phosphorylation
[2]; various concentrations of H2O2
  tyrosine phosphorylation of proteins of 120 kDa and 70 kDa: induced in a dose-dependent fashion

## CC(=O)N[C@@H](CS)C(=O)O [NAC, N-acetyl cysteine]
PTPs in Rat-1 cells; 30 mM NAC preincubation 40 minutes, then 200 μM H2O2
  effect on H2O2-induced PTP oxidation and inactivation: blocked PTP oxidation and inactivation
MAPK; [3]
  effect on PDGF-induced activation of MAPKs: completely eliminated
70 kDa PTP (SHP-2); [3]
  effect on PDGF-induced oxidation of the 70 k PTP: markedly attenuated; also recorded: impaired
PDGFR
  effect on ligand-induced tyrosine phosphorylation of the PDGFR: greatly diminished

## CC(C)(C)OO [t-BHP, t-butyl hydroperoxide]
PTPs in Rat-1 cells; lysis with 10 mM IAA
  inactivation (oxidation) of PTPs in cells: not in response to t-BHP
MAPK
  activation of MAPKs (mitogenic signaling): unable to activate MAPKs
SHP-2 (E76A mutant)
  protection of SHP-2 from alkylation by IAA: did not protect the invariant Cys residue of SHP-2 from alkylation
SHP-2 (E76A mutant); purified SHP-2 (E76A)
  oxidation and inactivation of SHP-2 in vitro: unable to oxidize and inactivate SHP-2
[1]
  DCF fluorescence by fluorescence microscopy: led to rapid oxidation and the appearance of the fluorescent derivative, DCF
  shift of DCF fluorescence by flow cytometry, H2O2 versus t-BHP: no quantitative difference was observed
[2]; 200 μM
  tyrosine phosphorylation of cellular proteins: less pronounced effects on tyrosine phosphorylation

## PDGF: peptide growth factor
MAPK; [4]
  phosphorylation of MAPKs: enhanced phosphorylation of MAPKs
MAPK; peptide growth factors, Rat-1 cells
  activation of MAPK: activated MAPK to a similar extent
PDGFR/SHP-2 complex
  fraction of total SHP-2 recruited into a complex with the PDGFR: ~10%
70 kDa PTP (SHP-2); 50 ng/ml PDGF-BB
  time of maximum oxidation of 70 kDa PTP: 5 min
  time to reduction of 70 kDa PTP almost to basal levels: ≤ 20 min
70 kDa PTP (SHP-2); 50 ng/ml PDGF-BB, serum-starved Rat-1 cells
  oxidation of ~70 kDa PTP: rapid and transient oxidation; also recorded: transiently oxidized
70 kDa PTP (SHP-2); peptide growth factors, lysis with 10 mM IAA
  oxidation and inhibition of SHP-2: oxidation and inhibition of SHP-2 was observed; also recorded: induced
[1]; 20 μM CM-H2DCFDA, growth factor 50 ng/ml, 10 mins
  production of intracellular ROS: triggered production of intracellular ROS
[2]; [4]
  tyrosine phosphorylation of cellular proteins: rapid increase in the tyrosine phosphorylation of cellular proteins
